pEC50: −log10 of the molar value.
Key:
[1] = target: Gyc-88EL/89Da (Drosophila melanogaster, UniProt Q8INF0+Q9VEU6); format: biochemical
[2] = target: Gycα-99B/β-100B (Drosophila melanogaster, UniProt Q07093+Q9VA09); format: biochemical
[3] = target: T1, Gyc-88EL/89Db (Drosophila melanogaster, UniProt Q8INF0+Q9VEU5); format: biochemical; settings: for activation by NO-independent activator: COS-7 cell extracts, 4mM Mg2+
[4] = target: T2, Gyc-88EL (Drosophila melanogaster, UniProt Q8INF0); format: biochemical
T2 sequence (Q8INF0 1-1097): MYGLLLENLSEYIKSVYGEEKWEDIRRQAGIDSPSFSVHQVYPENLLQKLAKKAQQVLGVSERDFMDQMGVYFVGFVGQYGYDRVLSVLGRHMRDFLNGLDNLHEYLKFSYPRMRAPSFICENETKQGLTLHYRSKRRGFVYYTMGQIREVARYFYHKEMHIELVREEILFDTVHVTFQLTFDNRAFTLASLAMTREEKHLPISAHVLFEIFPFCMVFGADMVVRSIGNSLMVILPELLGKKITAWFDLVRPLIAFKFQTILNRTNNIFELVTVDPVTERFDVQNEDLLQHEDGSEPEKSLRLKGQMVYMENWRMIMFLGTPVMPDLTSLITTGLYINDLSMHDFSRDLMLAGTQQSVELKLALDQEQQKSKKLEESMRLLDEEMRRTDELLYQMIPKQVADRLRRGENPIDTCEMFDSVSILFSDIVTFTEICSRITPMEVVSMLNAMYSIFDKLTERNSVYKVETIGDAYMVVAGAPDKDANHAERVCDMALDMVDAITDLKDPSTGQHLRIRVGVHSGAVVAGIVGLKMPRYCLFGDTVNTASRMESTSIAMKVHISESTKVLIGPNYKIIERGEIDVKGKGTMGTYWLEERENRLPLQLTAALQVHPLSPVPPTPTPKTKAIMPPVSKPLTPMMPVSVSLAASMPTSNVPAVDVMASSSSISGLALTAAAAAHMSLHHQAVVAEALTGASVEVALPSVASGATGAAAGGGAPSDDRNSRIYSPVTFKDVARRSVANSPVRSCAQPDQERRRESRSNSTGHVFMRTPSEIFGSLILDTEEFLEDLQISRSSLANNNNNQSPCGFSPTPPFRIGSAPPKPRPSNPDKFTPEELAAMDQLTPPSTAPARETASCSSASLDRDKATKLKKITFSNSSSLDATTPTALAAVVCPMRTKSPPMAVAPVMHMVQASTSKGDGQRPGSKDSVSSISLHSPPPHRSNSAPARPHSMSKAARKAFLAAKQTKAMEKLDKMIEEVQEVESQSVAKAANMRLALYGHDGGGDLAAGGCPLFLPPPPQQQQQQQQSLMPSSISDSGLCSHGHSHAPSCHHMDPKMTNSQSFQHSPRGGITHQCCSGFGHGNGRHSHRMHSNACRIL

[5] = target: T2, Gyc-88EL; settings: ref Langlais et al. 2004, cited from earlier work
[6] = target: T1, Gyc-88EL/89Db; settings: ref Langlais et al. 2004; cited from earlier work
[7] = NO donor; cited from earlier work

T1 sequence (Q9VEU5 whole entry, one chain of several): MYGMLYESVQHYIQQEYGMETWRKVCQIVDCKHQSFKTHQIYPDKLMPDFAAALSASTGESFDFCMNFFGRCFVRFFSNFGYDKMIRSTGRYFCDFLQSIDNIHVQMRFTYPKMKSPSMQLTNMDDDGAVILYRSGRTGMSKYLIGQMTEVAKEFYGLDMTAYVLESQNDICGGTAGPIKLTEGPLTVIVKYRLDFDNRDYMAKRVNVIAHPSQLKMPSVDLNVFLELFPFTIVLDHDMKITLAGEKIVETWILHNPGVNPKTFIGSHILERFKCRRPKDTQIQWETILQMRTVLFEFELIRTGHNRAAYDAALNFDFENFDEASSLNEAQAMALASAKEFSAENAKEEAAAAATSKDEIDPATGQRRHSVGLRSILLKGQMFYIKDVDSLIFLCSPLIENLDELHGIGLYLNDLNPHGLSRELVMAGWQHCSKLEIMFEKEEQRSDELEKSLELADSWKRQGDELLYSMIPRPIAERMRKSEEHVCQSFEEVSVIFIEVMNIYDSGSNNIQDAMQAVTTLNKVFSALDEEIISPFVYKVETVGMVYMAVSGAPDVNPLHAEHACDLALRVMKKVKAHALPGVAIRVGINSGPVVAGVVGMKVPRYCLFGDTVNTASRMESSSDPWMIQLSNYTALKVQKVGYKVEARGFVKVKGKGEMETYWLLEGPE
Chain of Gyc-88EL/89Da (Q9VEU6 whole entry, one chain of several): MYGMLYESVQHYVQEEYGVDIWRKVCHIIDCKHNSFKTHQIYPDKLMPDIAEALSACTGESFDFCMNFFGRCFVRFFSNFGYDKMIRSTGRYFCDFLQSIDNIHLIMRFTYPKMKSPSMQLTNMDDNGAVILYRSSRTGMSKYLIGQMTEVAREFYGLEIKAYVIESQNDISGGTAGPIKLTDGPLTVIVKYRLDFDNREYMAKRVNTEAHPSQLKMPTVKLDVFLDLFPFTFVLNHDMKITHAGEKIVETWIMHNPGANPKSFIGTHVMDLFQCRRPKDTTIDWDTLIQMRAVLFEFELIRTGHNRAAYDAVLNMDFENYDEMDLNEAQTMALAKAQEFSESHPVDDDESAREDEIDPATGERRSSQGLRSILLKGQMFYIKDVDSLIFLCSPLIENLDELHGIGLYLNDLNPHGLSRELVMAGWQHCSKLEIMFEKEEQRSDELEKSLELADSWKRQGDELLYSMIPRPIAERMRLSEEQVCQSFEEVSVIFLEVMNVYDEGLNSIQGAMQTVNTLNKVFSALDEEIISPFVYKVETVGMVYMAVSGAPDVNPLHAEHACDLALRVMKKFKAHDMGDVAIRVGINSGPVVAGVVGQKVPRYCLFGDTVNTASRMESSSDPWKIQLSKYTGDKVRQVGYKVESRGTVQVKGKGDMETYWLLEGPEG

Structure (SMILES): OCc1ccc(-c2nn(Cc3ccccc3)c3ccccc23)o1 [YC-1]
- activation by NO-independent activator ([1]; COS-7 cell extracts, 4mM Mg2+): insensitivity
- activation by NO-independent activator [2]: only activate the conventional enzyme
- activation by NO-independent activator [3]: insensitivity
- activation by NO-independent activator ([4]; COS-7 cell extracts, 4mM Mg2+): insensitivity

Structure (SMILES): O=c1onc2cnc3ccccc3n12 [ODQ, 1H-[1,2,4]oxadiazolo [4,3,-a]quinoxaline-1-one]
- inhibition of NOC-12-stimulated activity ([1]; 100 μM ODQ, data not shown): inhibited
- blocking of the NO-stimulation ([2]; all forms of the soluble guanylyl cyclases): effective at blocking the NO-stimulation
- DEA-NONOate-stimulated guanylyl cyclase activity in the presence of ODQ ([3]; 1 μM DEA-NONOate + 100 μM ODQ, 676 ± 70 in the absence): 141 ± 21 fmoles cGMP/min/mg protein
- inhibition of NOC-12-stimulated activity ([3]; 100 μM ODQ, data not shown): inhibited
- basal guanylyl cyclase activity in the presence of ODQ ([3]; 100 μM ODQ, 208 ± 19 in the absence): 237 ± 13 fmoles cGMP/min/mg protein
- inhibition of the activation by sodium nitroprusside [5]: ineffective

Structure (SMILES): Nc1nc2c(ncn2[C@@H]2O[C@H](COP(=O)(O)OP(=O)(O)OP(=O)(O)O)[C@@H](O)[C@H]2O)c(=O)[nH]1 [GTP]
- Vmax Mn/Mg ([1]; ratio of Vmax in Mn2+ to Mg2+): 46.9
- Vmax Mn/Mg ([2]; ratio of Vmax in Mn2+ to Mg2+): 96.7
- Vmax Mn/Mg ([3]; ratio of Vmax in Mn2+ to Mg2+): 1.81
- Vmax Mn/Mg ([4]; ratio of Vmax in Mn2+ to Mg2+): 1.71

Structure (SMILES): Nc1nc(-c2nn(Cc3ccccc3F)c3ncccc23)ncc1C1CC1 [BAY 41-2272]
- activation by NO-independent activator ([1]; COS-7 cell extracts, 4mM Mg2+): None of the atypical guanylyl cyclase subunit combinations showed any activation
- pEC50 [2]: 5.14
- activation at 30 μM ([2]; 30 μM, 4mM Mg2+): over 100 fold
- activation by NO-independent activator [3]: None of the atypical guanylyl cyclase subunit combinations showed any activation
- activation by NO-independent activator ([4]; COS-7 cell extracts, 4mM Mg2+): None of the atypical guanylyl cyclase subunit combinations showed any activation

Structure (SMILES): CC(=O)NC(C(=O)O)C(C)(C)SN=O (centres unmarked) [SNAP, S-nitroso-N-acetylpenicillamine]
- pEC50 [1]: ~5.00
- pEC50 [3]: ~5.00
- EC50 for activation ([4]; COS-7 cell extracts, 4mM Mg2+): not saturated with 100 μM SNAP

Structure (SMILES): CCN(CC)/[N+]([O-])=N/O [DEA-NONOate, diethylamine- (DEA)-NONOate]
- maximal stimulation of guanylyl cyclase activity ([1]; COS-7 cell extracts, 4mM Mg2+): No stimulation
- activation at 100 μM [6]: did not significantly activate
- pEC50 [3]: ~7.00
- DEA-NONOate-stimulated guanylyl cyclase activity ([3]; 1 μM DEA-NONOate, absence of ODQ, basal 208 ± 19): 676 ± 70 fmoles cGMP/min/mg protein
- concentration of maximal activation ([3]; bell-shaped response): about 1 μM
- activation at 100 μM ([5]; 100 μM): did not significantly activate
- maximal stimulation of guanylyl cyclase activity ([4]; COS-7 cell extracts, 4mM Mg2+): No stimulation

Structure (SMILES): CCNCCN(CC)N(O)N=O [NOC-12]
- pEC50 [1]: ~5.70
- pEC50 [3]: ~5.70
- half-life [7]: 5.45 h

— paper PMC1307573 (Journal of Insect Science, 2005)
